Test results taken from publication PMC11233931, “Remodeling tumor‐associated macrophage for anti‐cancer effects by rational design of irreversible inhibition of mitogen‐activated protein kinase‐activated protein kinase 2” (MedComm, 2024).

Experiments:
MK2 = MK2 (Homo sapiens, UniProt P49137); experiment: Kinase kinetic analysis of irreversible inhibition (Mobility Shift Assay, preincubation then 100-fold dilution); format: biochemical; details: preincubation at 100 times the IC50, monitored continuously
Sequence of MK2 (P49137 whole entry): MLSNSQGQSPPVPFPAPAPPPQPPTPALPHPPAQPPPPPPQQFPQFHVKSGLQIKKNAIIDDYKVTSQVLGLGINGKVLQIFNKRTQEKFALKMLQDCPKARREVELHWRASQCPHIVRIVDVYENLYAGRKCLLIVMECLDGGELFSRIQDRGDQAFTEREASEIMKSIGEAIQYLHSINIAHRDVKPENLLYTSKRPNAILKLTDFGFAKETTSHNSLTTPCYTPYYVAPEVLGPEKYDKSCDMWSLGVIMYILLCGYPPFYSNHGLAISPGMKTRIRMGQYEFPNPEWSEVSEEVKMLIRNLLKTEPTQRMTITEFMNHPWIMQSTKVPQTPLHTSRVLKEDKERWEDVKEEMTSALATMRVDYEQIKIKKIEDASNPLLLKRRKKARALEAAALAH
Excerpt: To assess its role as an irreversible MK2 kinase inhibitor, we conducted a kinetic study on compound 11. The well‐known reversible ATP‐competitive MK2 inhibitor, PF‐3644022, served as a negative control. […] The kinase‐inhibitor mixture was subsequently diluted by a factor of 100 with a reaction buffer that included both substrate peptide and ATP. Under these circumstances, the activity of MK2 kinase was continuously monitored by assessing the phosphorylated substrate percentage. […] The enzyme activity curve almost overlapped with the curve of background group, which included only the substrate peptide without inhibitors and MK2 kinase.
In the kinase kinetic analysis to elucidate the irreversible inhibition of MK2 by compound 11, a Mobility Shift Assay was conducted. […] The EZ Reader (Caliper Life Sciences, MA) was then used to assess the kinase activity of the mixture, which was monitored continuously for 1 hour.

[1] = test system: MRC1 and ARG-1 mRNA in RAW264.7 macrophages; experiment: RT-PCR of M2 markers in IL-4/IL-13 stimulated RAW264.7 macrophages; format: cell-based, mouse; details: IL-4/IL-13 20 ng/mL
Excerpt: (§1) A previous study has reported that MK2 fostered M2‐like polarization of TAMs, driving a protumor and proangiogenic phenotype which in turn accelerates tumor progression.[21] We thus assessed the influence of compound 11 on macrophage polarization and function. Our experiments used human THP‐1 monocyte induced macrophages, mouse RAW264.7 macrophages, and mouse bone marrow‐derived macrophages (BMDM). These cells were induced into M2‐like macrophages using the classic IL‐4 and IL‐13 stimuli.
(§2) FIGURE 5 Inhibition of pro‐tumorigenic M2‐like polarization in macrophages by compound 11. (A–C) RT‐PCR analysis highlights the impact of compound 11 on MRC1 and ARG‐1 mRNA expression in various macrophage cells treated with IL‐4/IL‐13 alone or combined with compound 11 for 12 h or 24 h. […] Data are shown as the mean ± SD. ^* p < 0.05; ^*** p < 0.001 versus the vehicle group, determined by unpaired t test. […]
(§3) Total RNA was extracted from cultured cells using the EZ‐press RNA Purification Kit (EZBioscience). Complementary DNA was synthesized using the ABScript III RT Master Mix for qPCR with gDNA remover (ABclonal Technology) and was quantified with primers listed in Table S5. The relative mRNA expression levels were quantified through qPCR using the SYBR green gene expression assay (ABclonal Technology).

[2] = test system: MRC1 and ARG-1 mRNA in bone marrow-derived macrophages (BMDM); experiment: RT-PCR of M2 markers in IL-4/IL-13 stimulated BMDM; format: cell-based, mouse; details: IL-4/IL-13 20 ng/mL
Excerpt: as §1, §2, §3

p-Hsp27 in THP-1 cells = experiment: Western blot of p-Hsp27 in IL-4/IL-13 treated THP-1 cells; format: cell-based, human; details: 1 h pretreatment, IL-4/IL-13 30 min
Excerpt: as §1
as §2, with “h. (D) CD206 and Arg‐1 expression in bone marrow‐derived macrophages (BMDM) cells via flow cytometry post 48 h treatment of compound 11 and IL‐4/IL‐13. (E) The treatment effects of compound 11 in THP‐1 cells using western blot analysis.” for “h.”
After the treatment outlined in the figure legends, cells were lysed using 1× sodium dodecyl sulfate (SDS) solution. […] Protein bands were detected using an enhanced chemiluminescence detection reagent (Thermo Fisher Scientific).

[3] = test system: VEGF mRNA in bone marrow-derived macrophages (BMDMs); experiment: RT-PCR of VEGF in IL-4/IL-13 stimulated BMDMs; format: cell-based, mouse; details: IL-4/IL-13, 12 h
Excerpt: Following this line of investigation, we employed siRNA for the transient knockdown of MK2 in THP‐1 monocyte‐ differentiated macrophages. […] M2 macrophages play a pivotal role in promoting tumor angiogenesis through the secretion of critical factors like VEGF, which facilitate tumor neovascularization.[17] […] These findings further validate the significance of MK2 in the M2 polarization of macrophages and illustrate how compound 11, by targeting MK2, suppresses the pro‐tumorigenic phenotype of macrophages.
as §3
Figure S3 Inhibition of pro-tumorigenic M2-like polarization in macrophages by compound 11. (A) Illustrates the treatment effects on various macrophage cells using Western blot analysis post IL-4/IL-13 exposure (30 minutes or the specified time period). (B) Examines CD206 expression in RAW264.7 cells via flow cytometry post 48hours treatment of compound 11 and IL-4/IL-13. […] IL-4/IL-13 (20 ng/mL) served as the stimulation control, while untreated cells were the baseline control. […]

[4] = test system: TAMs and CD206+ TAMs in MC38 tumor; experiment: Flow cytometry of tumor infiltrating TAMs in MC38 tumor model; format: in vivo, mouse; details: treated 9 days
Protocol: as §2, with “h. (D) CD206 and Arg‐1 expression in bone marrow‐derived macrophages (BMDM) cells via flow cytometry post 48 h treatment of compound 11 and IL‐4/IL‐13. (E) The treatment effects of compound 11 in THP‐1 cells using western blot analysis. Cells were pretreated with compound 11 for 1 h and followed by IL‐4/IL‐13 treatment (30 min). (F) The influence of MK2 siRNA on MRC1 and ARG‐1 mRNA expression in THP‐1 cells by RT‐PCR analysis post‐IL‐4/IL‐13 stimulation (12 h).” for “h.”
Antibodies targeting specific proteins along with corresponding isotype controls or FMO controls were employed to examine the leukocyte infiltrate: CD11b, CD45, CD206, Arg‐1, and F4/80 (BD, eBioscience and Biolegend). […] Eventually, the gathered data were analyzed using the FlowJo software, with the gating strategies utilized for flow cytometry represented in Figure S5.

Compound: C=CC(=O)Nc1cc(-c2cc(-c3cc4c([nH]3)CCNC4=O)ccn2)ccc1OC(F)(F)F [compound 11]
- MK2 kinase activity after 30 min preincubation with inhibitor and 100-fold dilution (MK2): sustained and potent inhibition of kinase activity
- effect on transcriptional level of MRC1 and ARG-1 [1]: significantly suppressed
- effect on transcriptional level of MRC1 and ARG-1 [2]: significantly suppressed
- effect on p-Hsp27 (p-Hsp27 in THP-1 cells): significant inhibition
- effect on relative mRNA level of VEGF [3]: inhibited
- effect on total and M2-like (CD206+) TAM populations in tumor [4]: marked reduction
